In brackets after ≈: the same amount, converted by molar mass.

A short description of data set [1]: RP-HPLC retention time as measure of β-peptide hydrophobicity. In kind it is physicochemical. To be noted: chromatographic, analytical RP-HPLC, C18 (Waters X-bridge, 4.6 mm × 250 mm), gradient 20%–80% CH3CN in water with 0.1% TFA over 5–35 min, 1 mL/minute, 0.5 to 1 mg/mL, 50 µL injected; mean ± standard deviation of triplicate measurements. The text has this:
β-peptides were produced by microwave-assisted Fmoc synthesis at 20−40 μmol scales and purified by RP-HPLC using a C18 column. MALDI mass spectrometry was used to validate the mass of each peptide as described previously. Retention times determined by C18 RP-HPLC were used as a measure of the relative hydrophobicity of the β-peptides (Table 1). This approach has been used previously by our group and others to assess the relative hydrophobicity of different peptide structures. Preliminary antifungal activity and mammalian toxicity evaluation were reported previously for β-peptides 1–16 as planktonic MIC against C. albicans and percent hemolysis at the MIC, respectively.
Hydrophobicity of 14-helical β-peptides was characterized by measuring retention times with an analytical RP-HPLC using a C18 column (Waters, X-bridge, column dimensions 4.6 mm × 250 mm, Milford, MA, USA). The β-peptide solutions (0.5 to 1 mg/mL, 50 µL) were injected into the HPLC at a flow rate of 1 mL/minute. Retention time was characterized in triplicate with a gradient of 20%–80% CH3CN in water containing 0.1% TFA over 5–35 min.

The subject of another data set is C. glabrata 5376. The data set can be described thus: Planktonic antifungal susceptibility (modified CLSI, XTT end point). In kind it is cell-based, Candida glabrata. To be noted: 10^3 cells/mL, RPMI, 35 °C, 48 h, XTT (A490), <10% metabolic activity, at least two independent days, three replicates each. The protocol:
(§1) C. albicans strains SC5314 and ATCC 90028 were purchased from ATCC. C. albicans K1, C. glabrata 5376, C. parapsilosis 5986 and C. tropicalis 98-234 are clinical isolates from invasive candidiasis and were generously donated by the Andes group (University of Wisconsin-Madison). K1 is fluconazole resistant. All strains were stored as a 50% glycerol stock at −80 °C and grown in a liquid YPD media. For planktonic susceptibility testing, cells were grown on agar plates at 30 °C for 24 h and 2–3 colonies were used for the cell inoculum. For spheroplast formation and biofilm susceptibility testing assays, cells were grown overnight in YPD at 30 °C. RPMI (with L-glutamine and phenol red buffered with 3-(N-morpholino) propanesulfonic acid and adjusted to pH 7.0) was the media used for all susceptibility tests. XTT solution for assessing metabolic activity was prepared at 0.5 g/L in PBS with 3 μM menadione in acetone and pH adjusted to 7.4.
(§2) The antifungal activities of the β-peptides against C. albicans, C. glabrata, C. parapsilosis, C. tropicalis cells were assayed in accordance to the guidelines for planktonic susceptibility testing provided by the Clinical and Laboratory Standards Institute, but with a modification to include a quantitative XTT cell metabolic activity end-point. […] After 48 h, the MICs were recorded visually as the first well that […] and by using an XTT metabolic assay. […]
For orientation: Formazan colour is commonly taken as a measure of viable cells.

The subject of data set [2] is human red blood cells (hRBCs). Description: Hemolysis of human red blood cells. In kind it is cell-based. To be noted: hRBCs, 2-fold dilutions in tris-buffered saline, an hour at 37 °C, absorbance 405 nm, relative to positive lysis control; average ± standard deviation of three independent experiments of duplicates each. Here is the method:
Table S1. Hemolysis of β-peptide 1-16, concentration of β-peptid e needed for 50% lysis of human red blood cells (hRBCs)
Peptide # Peptide Concentration at 50% Hemolysis a (HC50, µg/mL) […]
a Hemolysis assays were perfor med as previously indicated in Lee, M.R. et al., ACS Chem. Biol. (2014). Briefly, equal volumes of 2-fold dilutions of β-peptides in tris-buffered saline (TBS) were incubated with hRBCs for an hour at 37 °C. Supernatants were transferred to a new plate and absorbance was measured at 405 nm.
% hemolysis was calculated relative to positive lysis control and the concentration of peptide needed for 50% hemolysis was recorded as HC50 for that peptide. Values reported are average measurements from three independent experiments of duplicates each and the error denoted is the standard deviation. Concentration dependent hemolysis graphs can be found in Lee, M.R. et al., ACS Chem. Biol. (2014).

For a further data set, the system named is C. parapsilosis 5986. The data set can be described thus: Planktonic antifungal susceptibility (modified CLSI, XTT end point). In kind it is cell-based, Candida parapsilosis. To be noted: 10^3 cells/mL, RPMI, 35 °C, 48 h, XTT (A490), <10% metabolic activity, at least two independent days, three replicates each. Here is the method: as §1, §2
The subject of another data set is C. tropicalis 98-234. The data set is described as above. In kind it is cell-based, Candida tropicalis. To be noted: 10^3 cells/mL, RPMI, 35 °C, 48 h, XTT (A490), <10% metabolic activity, at least two independent days, three replicates each. Here is the method:
as §1, §2

With `CC(C)[C@@H](CC(=O)N[C@@H](CCCCN)CC(N)=O)NC(=O)[C@H]1CCCC[C@@H]1NC(=O)C[C@H](CCCCN)NC(=O)C[C@@H](NC(=O)[C@H]1CCCC[C@@H]1NC(=O)C[C@H](CCCCN)NC(=O)C[C@@H](NC(=O)[C@H]1CCCC[C@@H]1N)C(C)C)C(C)C` [Peptide 4], the “Hydrophobicity (HPLC Retention Time, min)” value in data set [1] was 24.5 ± 0.2 min. The “MIC, C. glabrata” value against C. glabrata 5376 is listed as 32 µg/mL (≈ 27.6 µM). The “Peptide Concentration at 50% Hemolysis (HC50)” value in data set [2] is 161 ± 40 µg/mL. In addition, in the data set with C. parapsilosis 5986, the “MIC, C. parapsilosis” value is reported as 16 µg/mL (≈ 13.8 µM). For the same compound, in the data set with C. tropicalis 98-234, the “MIC, C. tropicalis” value is 4 µg/mL (≈ 3.45 µM).

The values above are taken from publication PMC4588179, “Antifungal Activity of 14-Helical β-Peptides against Planktonic Cells and Biofilms of Candida Species” (Pharmaceuticals, 2015).
